Data as given in patent publication US20090162447A1, “Spherically Shaped Substances” (priority 2005, published 2009).
Several values for one entry are separate records, joined by “and”; a condition that tells them apart may be missing. Identical values can stand only once. Counter-ions that a name gives are not always drawn.

Key:
Assay type in all cases: physicochemical
[1] = Surface smoothness from particle images (Scanning Electron Microscopy); settings: as shown in images of the particles
Procedure: An additional estimate of the particles' smoothness was performed by analyzing the samples via Scanning Electron Microscopy (SEM). FIGS. 9A-C are images of the raw sucrose particles (FIG. 9A), sucrose particles of the present embodiments (FIG. 9B) and the prior art particles (FIG. 9C).

[2] = Angle of repose test on tilted smooth tile; settings: tile tilted 1° at a time; angle at which first particles slide
From the text: Another definition of the angle of repose is the maximum angle of tilt of a bed of the powder beyond which the powder cannot retain a static pose. To measure the angle of repose according to this definition, the powder of the present embodiments can be placed on a smooth solid bed surface. The bed surface can then be tilted very slowly about the horizontal axis to a maximum angle without the particles sliding. When the bed surface is tilted beyond the maximum angle, sliding occurs, and the angle of the bed surface to the horizontal once the particles begin sliding is defined as the angle of repose. An angle of repose measured by this technique is oftentimes referred to as tilting angle of repose.
The diltiazem hydrochloride particles were subjected to an angle of repose test. The particles were placed on a smooth tile positioned horizontally. The tile was tilted slowly each time at 1° about the horizontal axis. The angle of repose was defined as the angle at which the first particles had slide.

[3] = Sphericity by optical microscope images and image processing software (Buehler Omnimet)
Procedure: Thus, denoting the area of the image by A and the perimeter of the image by P, the sphericity, s, can be defined as s=4πA/P^2. As will be appreciated by one of ordinary skill in the art, when the image is a perfect circle, A=π(P/2π)^2=P^2/4π and s=1. When the area of the image is 0 (i.e., the image is a line or a curve) s=0. The samples were imaged through a transmission optical microscope (magnification: ×12.5). The images were analyzed by image processing software (Buehler Omnimet®). Each image processing comprised the following steps. In a first step the particles were delineated for 1 cycle; in a second step, dark areas were defined by thresholding; in a third step, the dark areas were filled; in a fourth step, particles smaller than 20×20 pixels were eliminated; in a fifth step border particles were eliminated; and in a sixth step the delineation of the non-eliminated particles were processed by the octagonal kernel of the software for 3 cycles. FIG. 19 is an image showing the raw sucrose particles after image processing. Following image processing the area, A, and perimeter, P, of each particle was measured from the images. The sphericity of each particle was defined as 4πA/P^2.

[4] = Shape factor and aspect ratio by DSA-10 image analyzer; settings: samples (i)-(iii); for shape factor: 4πA/P^2 by DSA-10 during constant flow of slurry; for aspect ratio: minimal Feret / maximal Feret
Procedure: The sphericity of the particles was also measured using a DSA-10 image analyzer (Ankersmid Ltd., Israel). The analysis was performed during constant flow of slurry containing the particles. Images of about 1000 particles were analyzed by the image analyzer to determine the sphericity of the particles. In these measurements the sphericity was also as defined 4πA/P^2. To distinguish between the sphericity values obtained as determined using the image processing software and the sphericity values obtained using the image analyzer, the latter are referred to below as “shape factor”.
Beside sphericity, the DSA-10 image analyzer was used to characterize the shape of the particles by their aspect ratio, defined as the ratio between the minimal Feret and the maximal Feret of the particles.

[5] = Flow rate test with Hall flow meter; settings: 5 millimeter diameter nozzle tilted at an angle of 30°
From the text: The flowability of the powder of the present embodiments can also be characterized by its flow rate at certain conditions. The flowability can be measured using a suitable flow meter, such as, but not limited to, a Hall flow meter. Thus, according to a preferred embodiment of the present invention the powder of the preset embodiments is capable of maintaining a flow rate of at least 6, more preferably at least 8, more preferably at least 10 gram per square centimeter per second, through a 5 millimeters nozzle tilted at an angle of 30°.
The metformin particles were subjected to a flow rate test using a Hall flow meter having a 5 millimeter diameter nozzle. The nozzle was tilted at an angle of 30°.

[6] = BET specific surface area measurement (TriStar 3000 analyzer)
Procedure: A BET surface of the particle refers to a surface measured using a method developed by Brunauer, Emmett and Teller and commonly referred to as BET method. According to the BET method, the surface area is determined by allowing the surface to interact with nitrogen molecules and analyzing the corresponding adsorption curves. The BET method is well known in the art and is found in many publications (to this end see, e.g., S. J. Gregg and K. S. Sing, “Adsorption, Surface Area and Porosity”, Academic Press, London, 1995).
Following drying, a sample of the formed sucrose particles was subjected to BET measurement using a TriStar 3000 analyzer (Micromeritics, Georgia, USA), to obtain a specific surface area for the particles (surface area per unit mass). An averaged value of 0.03 m^2/gr was measured. For comparison, the specific surface area of a sample of prior art particles of similar size (355-500 micrometer Suglets®, purchased from NP Pharm, France), was also measured. The specific surface area of the particles of this sample was 0.27 m^2/gr. Thus, the sucrose particles produced according to the teaching of the present embodiments of the invention are characterized by a specific surface area which is about 9 times smaller than the specific surface area characterizing the prior art. As the average size of the samples was similar, the specific surface was used as a measure of the smoothness of the particles.

[7] = Ratio of optical surface area to BET surface area / rugosity
From the text: In an additional embodiment, the smoothness is defined by a ratio between an optical surface area of the particle and a BET surface area thereof.
An optical surface area of the particle is the surface area of the particle as measured optically. Such measurement can be performed, for example, by obtaining an image of the particle using an optical microscope and estimating its surface area, by approximating the shape of the particle to a symmetrical shape. For example, when the shape of the particle is similar to a sphere, its optical surface area can be approximated by 4πR^2, where R is the radius of the particle, as measured from the image. When the shape of the particle is similar to a spheroid, having a long axis a and an aspect ratio of ε, its surface area can be approximated by 2πa^2 ε (ε+t/b), where b is given by b^2=1−ε^2, and t (in radians) is given by sin(t)=b. As will be appreciated by one ordinarily skilled in the art the aspect ratio can also be approximated as the square root of the sphericity defined above.
A BET surface of the particle refers to a surface measured using a method developed by Brunauer, Emmett and Teller and commonly referred to as BET method. According to the BET method, the surface area is determined by allowing the surface to interact with nitrogen molecules and analyzing the corresponding adsorption curves. […]

[8] = Table 2, samples (i)-(iii), hydrochloride
[9] = 4πA/P^2, Table 1, magnification ×12.5

Structure (SMILES)	sphericity [3, 8]	shape factor ([4]; hydrochloride)	aspect ratio ([4]; hydrochloride)	sphericity ([3]; Table 2, samples (i)-(iii))	shape factor [4]	aspect ratio [4]	other results
COc1ccc([C@@H]2Sc3ccccc3N(CCN(C)C)C(=O)[C@@H]2OC(C)=O)cc1 [diltiazem hydrochloride]							surface of the particles (image) [1]: substantially smooth; angle of repose [2]: 38 °
COc1ccc([C@@H]2Sc3ccccc3N(CCN(C)C)C(=O)[C@@H]2OC(C)=O)cc1.Cl [raw dilitiazem hydrochloride, diltiazem hydrochloride, reference compound]	0.5278 and 0.4773 and 0.4954	0.7032 and 0.7056 and 0.6847	0.5416 and 0.5442 and 0.5293				angle of repose [2]: 48 °
CN(C)C(=N)N=C(N)N [raw metformin, metformin, reference compound]				0.6146 and 0.5675 and 0.5720	0.8244 and 0.8214 and 0.8404	0.6900 and 0.6434 and 0.6420	flow rate ([5]; listed as raw metformin particles): no flow was observed
NC(=O)N1c2ccccc2CC(=O)c2ccccc21 [raw oxcarbazepine, oxcarbazepine, reference compound]				0.4997 and 0.4760 and 0.4144	0.7789 and 0.7908 and 0.7886	0.6102 and 0.6062 and 0.6221	
OC[C@H]1O[C@@](CO)(O[C@H]2O[C@H](CO)[C@@H](O)[C@H](O)[C@H]2O)[C@@H](O)[C@@H]1O [raw sucrose, sucrose, reference compound]							sphericity [3, 9]: 0.773 ± 0.05
OC[C@H]1O[C@@](CO)(O[C@H]2O[C@H](CO)[C@@H](O)[C@H](O)[C@H]2O)[C@@H](O)[C@@H]1O [rounded 300-600 μm sucrose, sucrose]							surface of the particles (image) [1]: substantially smooth; sphericity [3, 9]: 0.875 ± 0.027; specific surface area (surface area per unit mass), BET ([6]; dried powder sample, averaged value): 0.03 m^2/gr; BET specific surface ([6]; particles whose average diameter is about 400 micrometer): about 0.03 gr/m^2; specific surface area, times smaller than prior art ([6]; versus 355-500 micrometer Suglets of similar size): about 9 times; rugosity ([7]; corresponds to optical/BET surface area ratio): 1.5-3; optical specific surface area ([7]; spherical or spherical-like particle, diameter about 400 micrometer): 0.01 to 0.02 m²/g
COc1ccc([C@@H]2Sc3ccccc3N(CCN(C)C)C(=O)[C@@H]2OC(C)=O)cc1.Cl [rounded dilitiazem hydrochloride 20-45 μm] [diltiazem hydrochloride]	0.5106 and 0.5220 and 0.5139	0.8426 and 0.8168 and 0.8467	0.6915 and 0.6935 and 0.6947				
COc1ccc([C@@H]2Sc3ccccc3N(CCN(C)C)C(=O)[C@@H]2OC(C)=O)cc1.Cl [rounded dilitiazem hydrochloride above 45 μm] [diltiazem hydrochloride]	0.6572 and 0.6601 and 0.6940	0.8229 and 0.8211 and 0.8368	0.7015 and 0.6986 and 0.7053				
COc1ccc([C@@H]2Sc3ccccc3N(CCN(C)C)C(=O)[C@@H]2OC(C)=O)cc1.Cl [rounded dilitiazem hydrochloride mix 20-45 μm + 45 μm] [diltiazem hydrochloride]	0.5315 and 0.6004 and 0.5942	0.8383 and 0.8419 and 0.8279	0.6828 and 0.6923 and 0.6731				
CN(C)C(=N)N=C(N)N [rounded metformin, metformin]				0.7634 and 0.7676 and 0.7344	0.8719 and 0.8739 and 0.8843	0.6791 and 0.6740 and 0.6904	surface of the particles (image) [1]: substantially smooth; flow rate ([5]; listed as rounded metformin particles): 10.2 gr/(cm^2×s)
NC(=O)N1c2ccccc2CC(=O)c2ccccc21 [rounded oxcarbazepine, oxcarbazepine]				0.6103 and 0.5707 and 0.4969	0.8138 and 0.7996 and 0.8174	0.5875 and 0.5887 and 0.5829	
